This passage reports Dmax and Ki results from patent US20250263395A1, “COMPOUNDS THAT MEDIATE PROTEIN DEGRADATION AND METHODS OF USE THEREOF” (Monte Rosa Therapeutics AG, priority 2022, published 2025).

In one test the target is CDK2 (Homo sapiens (Human), UniProt P24941). Description: CDK2 NanoBiT assay (HiBiT-tagged CDK2 degradation). It is filed as cell-based. Conditions: HEK293, HEK293 clonal line, C-terminal HiBiT tag on CDK2, LgBiT; 24 hours. An outline of the steps: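 HEK293 line with CRISPR knock-in C-terminal HiBiT-tagged CDK2 and stable LgBiT, preincubated 16 h with live-cell substrate, then compound-treated 24 h at 37° C, 5% CO2 (30 μM stock). Luminescence normalized to plate negative and positive controls; EC50 from 3-parameter logistic fit, Hill slope 1.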
In general terms: With HiBiT, luminescence reflects the tagged protein that the partner subunit can reach.

Another test has as its target CRBN-DDB1 (Homo sapiens (Human), UniProt Q96SW2). Description: CRBN HTRF assay (Cy5-Thalidomide probe displacement). Conditions: CRBN-DDB1 2.5 nM, Cy5-Thalidomide 100 nM, 30 min; Ki from geometric mean IC50 by Cheng-Prusoff. It is filed as binding. The method in brief:
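HTRF displacement of Cy5-thalidomide probe (100 nM) from His-CRBN-DDB1 (2.5 nM) with anti-His terbium cryptate, in HEPES/NaCl/TCEP/EDTA/Tween20 buffer. 10-point 1:3 compound series, 30 min at ambient temperature; signal normalised to DMSO and lenalidomide controls, IC50 fitted and Ki derived by Cheng-Prusoff.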
On the technique in general: Time-resolved FRET reads energy transfer from a long-lived donor to a nearby acceptor.

Chain of CRBN-DDB1 (Q96SW2 whole entry): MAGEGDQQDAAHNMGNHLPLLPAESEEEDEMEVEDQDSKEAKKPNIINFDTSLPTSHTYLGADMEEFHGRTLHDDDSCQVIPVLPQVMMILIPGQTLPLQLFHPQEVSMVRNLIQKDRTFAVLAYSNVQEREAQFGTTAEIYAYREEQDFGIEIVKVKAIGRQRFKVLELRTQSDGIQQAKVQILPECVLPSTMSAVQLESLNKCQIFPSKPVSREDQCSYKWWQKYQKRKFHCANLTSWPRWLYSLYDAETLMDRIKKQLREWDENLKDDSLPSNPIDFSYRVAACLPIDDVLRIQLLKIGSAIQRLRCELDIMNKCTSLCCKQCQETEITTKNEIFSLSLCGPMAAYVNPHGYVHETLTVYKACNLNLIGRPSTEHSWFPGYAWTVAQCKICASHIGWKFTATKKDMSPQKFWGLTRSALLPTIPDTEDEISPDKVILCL
Chain of CRBN-DDB1 (Q16531 whole entry partner): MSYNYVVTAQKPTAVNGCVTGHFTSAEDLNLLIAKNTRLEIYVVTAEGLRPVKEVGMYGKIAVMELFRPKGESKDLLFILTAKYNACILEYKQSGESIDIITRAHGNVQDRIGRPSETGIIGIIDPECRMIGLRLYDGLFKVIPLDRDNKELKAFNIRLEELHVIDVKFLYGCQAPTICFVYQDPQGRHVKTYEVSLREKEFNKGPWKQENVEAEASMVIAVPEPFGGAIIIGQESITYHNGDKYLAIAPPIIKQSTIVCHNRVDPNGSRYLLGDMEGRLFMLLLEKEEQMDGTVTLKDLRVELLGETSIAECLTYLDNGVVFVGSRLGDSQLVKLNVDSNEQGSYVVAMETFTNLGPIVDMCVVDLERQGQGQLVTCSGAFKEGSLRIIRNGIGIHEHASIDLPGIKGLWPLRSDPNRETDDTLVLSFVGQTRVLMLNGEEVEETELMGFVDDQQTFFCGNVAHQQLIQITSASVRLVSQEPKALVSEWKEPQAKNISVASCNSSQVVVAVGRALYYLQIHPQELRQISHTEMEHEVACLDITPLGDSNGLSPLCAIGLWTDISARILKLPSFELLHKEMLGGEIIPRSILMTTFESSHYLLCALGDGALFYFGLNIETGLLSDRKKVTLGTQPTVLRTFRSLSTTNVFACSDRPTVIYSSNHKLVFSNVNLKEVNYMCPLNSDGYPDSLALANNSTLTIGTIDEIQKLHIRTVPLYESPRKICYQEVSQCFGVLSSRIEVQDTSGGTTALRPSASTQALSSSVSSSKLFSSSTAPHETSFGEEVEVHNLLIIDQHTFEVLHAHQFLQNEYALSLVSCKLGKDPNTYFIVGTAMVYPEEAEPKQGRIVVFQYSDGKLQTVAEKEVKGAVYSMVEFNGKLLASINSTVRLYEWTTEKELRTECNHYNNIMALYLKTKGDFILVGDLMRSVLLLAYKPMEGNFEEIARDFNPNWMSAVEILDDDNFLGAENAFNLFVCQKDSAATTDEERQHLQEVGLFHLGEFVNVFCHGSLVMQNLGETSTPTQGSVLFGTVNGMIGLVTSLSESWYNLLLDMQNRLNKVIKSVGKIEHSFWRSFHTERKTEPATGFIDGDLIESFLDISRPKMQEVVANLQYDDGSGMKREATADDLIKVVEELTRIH

In general, Dmax refers to the greatest extent of degradation seen. Lower therefore signals a partial loss of target. What is called Ki is the equilibrium dissociation constant of an inhibitor or competing ligand from its target. At CDK2, `CN(C(=O)C12CC(OC(=O)NC3CN(c4cc(F)c(C5CCC(=O)NC5=O)c(F)c4)C3)(C1)C2)c1cccc(C#N)c1` (stereo not drawn) [Compound 123, 3-((3-cyanophenyl)(methyl)carbamoyl)bicyclo[1.1.1]pentan-1-yl (1-(4-(2,6-dioxopiperidin-3-yl)-3,5-difluorophenyl)azetidin-3-yl)carbamate] had a Dmax of 10 to 50%. Also, on CRBN-DDB1, the Ki is at most 100 nM.
In the same order, the values of `O=C1CCC(c2c(F)cc(N3CC(NC(=O)OC4CN(C(=O)C5CC5)C4)C3)cc2F)C(=O)N1` (stereo not drawn) [Compound 41, 1-(cyclopropanecarbonyl)azetidin-3-yl (1-(4-(2,6-dioxopiperidin-3-yl)-3,5-difluorophenyl)azetidin-3-yl)carbamate] are 10 to 50% and at most 100 nM.
Molecule `Cc1ccc(-c2nnc(N[C@H]3CN(c4cc(F)c(C5CCC(=O)NC5=O)c(F)c4)[C@@H]3C)o2)cc1` (stereo partly drawn) [Compound 143, 3-(2,6-difluoro-4-((2R,3S)-2-methyl-3-((5-(p-tolyl)-1,3,4-oxadiazol-2-yl)amino)azetidin-1-yl)phenyl)piperidine-2,6-dione] registered a Dmax on CDK2 of 50 to 80%. The Ki at CRBN-DDB1 lay within 100 to 1000 nM.
The like results for `CN(C(=O)C12CC(OC(=O)NC3CN(c4cc(F)c(C5CCC(=O)NC5=O)c(F)c4)C3)(C1)C2)c1ccc(F)cc1` (stereo not drawn) [Compound 132, 3-((4-fluorophenyl)(methyl)carbamoyl)bicyclo[1.1.1]pentan-1-yl (1-(4-(2,6-dioxopiperidin-3-yl)-3,5-difluorophenyl)azetidin-3-yl)carbamate] were, in that order, 50 to 80% and at most 100 nM.
Regarding `O=C1CCC(c2c(F)cc(N3CC(Nc4nnc(-c5ccc(OC(F)(F)F)cc5)o4)C3)cc2F)C(=O)N1` (stereo not drawn) [Compound 103, 3-(2,6-difluoro-4-(3-((5-(4-(trifluoromethoxy)phenyl)-1,3,4-oxadiazol-2-yl)amino)azetidin-1-yl)phenyl)piperidine-2,6-dione], on CDK2, the Dmax is above 80%. This molecule also came in with a Ki on CRBN-DDB1 of at most 100 nM.
In the same order, the values of `CC1(NC(=O)OCC2CC3(CCC3)C2)CN(c2cc(F)c(C3CCC(=O)NC3=O)c(F)c2)C1` (stereo not drawn) [Compound 56, spiro[3.3]heptan-2-ylmethyl (1-(4-(2,6-dioxopiperidin-3-yl)-3,5-difluorophenyl)-3-methylazetidin-3-yl)carbamate] are above 80% and at most 100 nM.
The like results for `CN(C(=O)C12CC(OC(=O)NC3CN(c4cc(F)c(C5CCC(=O)NC5=O)c(F)c4)C3)(C1)C2)c1ccc(C#N)cc1` (stereo not drawn) [Compound 120, 3-((4-cyanophenyl)(methyl)carbamoyl)bicyclo[1.1.1]pentan-1-yl (1-(4-(2,6-dioxopiperidin-3-yl)-3,5-difluorophenyl)azetidin-3-yl)carbamate] were, in that order, 10 to 50% and at most 100 nM.
The like results for `CN(C)C(=O)C12CC(OC(=O)NC3CN(c4cc(F)c(C5CCC(=O)NC5=O)c(F)c4)C3)(C1)C2` (stereo not drawn) [Compound 76, 3-(dimethylcarbamoyl)bicyclo[1.1.1]pentan-1-yl (1-(4-(2,6-dioxopiperidin-3-yl)-3,5-difluorophenyl)azetidin-3-yl)carbamate] were, in that order, 10 to 50% and at most 100 nM.
On CDK2, `COc1c(N2CC(Nc3nnc(C4CC5(CCC5)C4)o3)C2)ccc(C2CCC(=O)NC2=O)c1F` (stereo not drawn) [Compound 94, 3-(2-fluoro-3-methoxy-4-(3-((5-(spiro[3.3]heptan-2-yl)-1,3,4-oxadiazol-2-yl)amino)azetidin-1-yl)phenyl)piperidine-2,6-dione] registered a Dmax above 80%. Moreover, at CRBN-DDB1, the inhibition constant (Ki) is 100 to 1000 nM.
Regarding `O=C1CCC(c2c(F)cc(N3CC(NC(=O)OC4CN(C(=O)N5Cc6ccccc6C5)C4)C3)cc2F)C(=O)N1` (stereo not drawn) [Compound 5, 1-(isoindoline-2-carbonyl)azetidin-3-yl (1-(4-(2,6-dioxopiperidin-3-yl)-3,5-difluorophenyl)azetidin-3-yl)carbamate], on CDK2, the Dmax was in the range of 50 to 80%. On CRBN-DDB1, this molecule showed a Ki of at most 100 nM.
The like results for `CN(C)C(=O)N1CC(OC(=O)NC2(C)CN(c3cc(F)c(C4CCC(=O)NC4=O)c(F)c3)C2)C1` (stereo not drawn) [Compound 14, 1-(dimethylcarbamoyl)azetidin-3-yl (1-(4-(2,6-dioxopiperidin-3-yl)-3,5-difluorophenyl)-3-methylazetidin-3-yl)carbamate] were, in that order, 10 to 50% and at most 100 nM.
For the molecule `O=C1CCC(c2c(F)cc(N3CC[C@@H](NC(=O)OCC4CC5(CCC5)C4)C3)cc2F)C(=O)N1` (stereo partly drawn) [Compound 64, spiro[3.3]heptan-2-ylmethyl ((3R)-1-(4-(2,6-dioxopiperidin-3-yl)-3,5-difluorophenyl)pyrrolidin-3-yl)carbamate], on CDK2, the Dmax was above 80%. Also, on CRBN-DDB1, the Ki is at most 100 nM.
In the same order, the values of `C[C@@H]1[C@@H](Nc2nnc(-c3ccc(OC(F)(F)F)cc3)o2)CN1c1cc(F)c(C2CCC(=O)NC2=O)c(F)c1` (stereo partly drawn) [Compound 144, 3-(2,6-difluoro-4-((2R,3S)-2-methyl-3-((5-(4-(trifluoromethoxy)phenyl)-1,3,4-oxadiazol-2-yl)amino)azetidin-1-yl)phenyl)piperidine-2,6-dione] are 50 to 80% and at most 100 nM.
In the same order, the values of `CN(C(=O)N1CC(OC(=O)NC2CN(c3cc(F)c(C4CCC(=O)NC4=O)c(F)c3)C2)C1)c1ccc(F)cc1` (stereo not drawn) [Compound 72, 1-((4-fluorophenyl)(methyl)carbamoyl)azetidin-3-yl (1-(4-(2,6-dioxopiperidin-3-yl)-3,5-difluorophenyl)azetidin-3-yl)carbamate] are above 80% and at most 100 nM.
At CDK2, `Cc1ccc(C(=O)N2CC(OC(=O)NC3CN(c4cc(F)c(C5CCC(=O)NC5=O)c(F)c4)C3)C2)cc1` (stereo not drawn) [Compound 23, 1-(4-methylbenzoyl)azetidin-3-yl (1-(4-(2,6-dioxopiperidin-3-yl)-3,5-difluorophenyl)azetidin-3-yl)carbamate] had a Dmax of 50 to 80%. The molecule further displayed a Ki on CRBN-DDB1 of at most 100 nM.
At CDK2, `O=C1CCC(c2c(F)cc(N3CC(Nc4nnc(C5CC6(CCC6)C5)o4)C3)cc2F)C(=O)N1` (stereo not drawn) [Compound 107, 3-(2,6-difluoro-4-(3-((5-(spiro[3.3]heptan-2-yl)-1,3,4-oxadiazol-2-yl)amino)azetidin-1-yl)phenyl)piperidine-2,6-dione] came in with a Dmax above 80%. Further, the Ki at CRBN-DDB1 was at most 100 nM.
At CDK2, `O=C1CCC(c2c(F)cc(N3CC(NC(=O)OC4CN(c5nc6ccccc6o5)C4)C3)cc2F)C(=O)N1` (stereo not drawn) [Compound 69, 1-(benzo[d]oxazol-2-yl)azetidin-3-yl (1-(4-(2,6-dioxopiperidin-3-yl)-3,5-difluorophenyl)azetidin-3-yl)carbamate] displayed a Dmax of 50 to 80%. The molecule further returned a Ki at CRBN-DDB1 of at most 100 nM.
The like results for `CC1(CCc2nnc(NC3CN(c4cc(F)c(C5CCC(=O)NC5=O)c(F)c4)C3)o2)CC1` (stereo not drawn) [Compound 122, 3-(2,6-difluoro-4-(3-((5-(2-(1-methylcyclopropyl)ethyl)-1,3,4-oxadiazol-2-yl)amino)azetidin-1-yl)phenyl)piperidine-2,6-dione] were, in that order, 10 to 50% and at most 100 nM.
Molecule `CN(C(=O)C12CC(OC(=O)NC3CN(c4cc(F)c(C5CCC(=O)NC5=O)c(F)c4)C3)(C1)C2)c1ccccc1` (stereo not drawn) [Compound 81, 3-(methyl(phenyl)carbamoyl)bicyclo[1.1.1]pentan-1-yl (1-(4-(2,6-dioxopiperidin-3-yl)-3,5-difluorophenyl)azetidin-3-yl)carbamate] gave a Dmax on CDK2 above 80%. Also, at CRBN-DDB1, the Ki was at most 100 nM.
In the same order, the values of `CN(C(=O)C12CC(OC(=O)NC3CN(c4cc(F)c(C5CCC(=O)NC5=O)c(F)c4)C3)(C1)C2)c1cccc(Cl)c1` (stereo not drawn) [Compound 131, 3-((3-chlorophenyl)(methyl)carbamoyl)bicyclo[1.1.1]pentan-1-yl (1-(4-(2,6-dioxopiperidin-3-yl)-3,5-difluorophenyl)azetidin-3-yl)carbamate] are 50 to 80% and at most 100 nM.
In the same order, the values of `Cc1ccccc1N(C)C(=O)N1CC(OC(=O)NC2CN(c3cc(F)c(C4CCC(=O)NC4=O)c(F)c3)C2)C1` (stereo not drawn) [Compound 70, 1-(methyl(o-tolyl)carbamoyl)azetidin-3-yl (1-(4-(2,6-dioxopiperidin-3-yl)-3,5-difluorophenyl)azetidin-3-yl)carbamate] are 50 to 80% and at most 100 nM.
Turning to `O=C1CCC(c2c(F)cc(N3CC(NC(=O)OC4CN(C(=O)N5CC6(CCC6)C5)C4)C3)cc2F)C(=O)N1` (stereo not drawn) [Compound 31, 1-(2-azaspiro[3.3]heptane-2-carbonyl)azetidin-3-yl (1-(4-(2,6-dioxopiperidin-3-yl)-3,5-difluorophenyl)azetidin-3-yl)carbamate], the Dmax on CDK2 was in the range of 50 to 80%. The Ki at CRBN-DDB1 is at most 100 nM.
On CDK2, `CN(C)C(=O)N1CC(OC(=O)NC2CN(c3cc(F)c(C4CCC(=O)NC4=O)c(F)c3)C2)C1` (stereo not drawn) [Compound 45, 1-(dimethylcarbamoyl)azetidin-3-yl (1-(4-(2,6-dioxopiperidin-3-yl)-3,5-difluorophenyl)azetidin-3-yl)carbamate] came in with a Dmax of 10 to 50%. At CRBN-DDB1, this molecule came in with a Ki of at most 100 nM.
The molecule `CN(C(=O)N1CC(OC(=O)NC2CN(c3cc(F)c(C4CCC(=O)NC4=O)c(F)c3)C2)C1)c1ccccc1Cl` (stereo not drawn) [Compound 71, 1-((2-chlorophenyl)(methyl)carbamoyl)azetidin-3-yl (1-(4-(2,6-dioxopiperidin-3-yl)-3,5-difluorophenyl)azetidin-3-yl)carbamate] yielded a Dmax on CDK2 of 50 to 80%. On CRBN-DDB1, this molecule displayed a Ki of at most 100 nM.
